Measured values as given in publication PMC11111404, “Discovery of potent small-molecule inhibitors of lipoprotein(a) formation” (Nature, 2024).
Values joined by “and” are separate entries in the source; they are usually repeats but may differ in a detail not shown here. Equal values may be shown once. Marks after values point to notes of the source that are not given here.

Test system: Lp(a)
Assay: Lp(a) levels in cynomolgus monkeys
Format: in vivo, cynomolgus monkey (Macaca fascicularis)
Design: key to Mean_pCFB_vs_Veh / Mean_pCFB_vs_Veh (Lp(a)): % change from pre-dose, treated group compared with vehicle; key to Mean_pCFB / Mean_pCFB (Lp(a)): % change in Lp(a) from before dosing; Lp(a): unit not given here
Conditions: for Mean_pCFB / Mean_pCFB_vs_Veh: Lp(a); for Mean_pCFB / Mean_pCFB_vs_Veh / Lp(a) / pCFB (Lp(a) pct change from baseline): female cynomolgus monkeys
Experimental: Female or male Chinese Macaca fascicularis cynomolgus monkeys (as described in the figure legends) of unspecified ages with body weight ranging from 2.0 kg to 5.0 kg were housed in cages with a standard light cycle (12-h light, 12-h dark) at room temperature (20–26 °C); the relative humidity ranged from 30% to 70%. Monkeys were given fruits, vegetables or dietary enrichment as a form of environmental enrichment, and various cage enrichment devices. Purina Lab diet 5048C was provided BID and individual monkeys were identified by cage card. The monkeys were randomized to treatment groups by body weight and baseline plasma Lp(a) concentration, as determined by a commercially available Randox assay (Randox LP2757), using a BRAT for the study. In an example cynomolgus monkey study in which 39 monkeys were prescreened for baseline Lp(a) levels, the average Lp(a) level was 350 ± 57 µg ml^−1 (range 53–1,667 µg ml^−1). Monkeys were dosed orally with vehicle (purified water) or compounds QD or BID for 14 days, at dose levels and frequencies as previously described for each compound. Plasma samples were collected on days before dosing to establish baseline Lp(a) and after the morning dose during the study. Lp(a) levels were measured by an investigator who was blinded to group allocation using the Randox assay, and were quantified relative to the calibrator series (Randox LP3404). Data were analysed in GraphPad Prism v.9.5.1. The Lp(a) percentage change from before dosing in non-human primates was analysed by repeated measures ANOVA in SAS v.9.4 (SAS). At each time point, the Lp(a) percentage change for each treated group was compared with vehicle by the Bonferroni method.

[1] = oral BID, day 1, individual animal
[2] = oral BID, day 3, individual animal
[3] = oral BID, day 5, individual animal
[4] = oral BID, day 9, individual animal
[5] = oral BID, day 14, individual animal
[6] = oral QD, day 1, individual animal
[7] = oral QD, day 3, individual animal
[8] = oral QD, day 5, individual animal
[9] = oral QD, day 9, individual animal
[10] = oral QD, day 14, individual animal

Compound: Cl.O=C(O)[C@@H](Cc1ccccc1)[C@H]1CCNC1 [LSN3353871]
- Mean_pCFB (BID, day 1): -17.16
- Mean_pCFB_vs_Veh (BID, day 1): 1.08
- Mean_pCFB (BID, day 3): -35.64
- Mean_pCFB_vs_Veh (BID, day 3): -13.27
- Mean_pCFB (BID, day 5): -39.65
- Mean_pCFB_vs_Veh (BID, day 5): -25.29
- Mean_pCFB (BID, day 9): -24.57
- Mean_pCFB_vs_Veh (BID, day 9): -29.9
- Mean_pCFB (BID, day 14): -34.78
- Mean_pCFB_vs_Veh (BID, day 14): -34.93
- Mean_pCFB (QD, day 1): -15.58
- Mean_pCFB_vs_Veh (QD, day 1): 2.65
- Mean_pCFB (QD, day 3): -24.41
- Mean_pCFB_vs_Veh (QD, day 3): -2.03
- Mean_pCFB (QD, day 5): -27.62
- Mean_pCFB_vs_Veh (QD, day 5): -13.26
- Mean_pCFB (QD, day 9): -15.91
- Mean_pCFB_vs_Veh (QD, day 9): -21.23
- Mean_pCFB (QD, day 14): -9.51
- Mean_pCFB_vs_Veh (QD, day 14): -9.65
- decrease in Lp(a) levels (cynomolgus monkeys, 20 mg kg^−1 BID for two weeks): up to 40%
- %Lp(a) max decrease (dose, mg/kg) (cynomolgus monkeys, 20 mg/kg BID, 14 days dosing): 40 (20)^b %
- Lp(a) (BID group, day -1 (before dosing), individual animal): 62.7685 and 48.163 and 60.7172 and 13.635 and 18.9902 and 51.942 and 61.5505 and 31.6327
- Lp(a) (BID group, day -14 (before dosing), individual animal): 63.283 and 50.674 and 55.2892 and 13.5483 and 15.2575 and 51.2555 and 54.086 and 23.9562
- Lp(a) (QD group, day -1 (before dosing), individual animal): 64.272 and 49.5175 and 60.6415 and 25.2005
- Lp(a) (QD group, day -14 (before dosing), individual animal): 61.406 and 37.9278 and 38.7218 and 35.5823
- Lp(a) [1]: 52.535 and 44.0168 and 46.6457 and 12.9142 and 11.7935 and 42.9437 and 23.7942 and 44.7918
- pCFB (Lp(a) pct change from baseline) [1]: -10.9306 and -19.5807 and -4.985 and -31.1282 and -18.9955 and -14.3923 and -20.5861 and -16.6452
- Lp(a) [2]: 45.0043 and 39.4997 and 31.6748 and 8.965 and 6.9825 and 34.2685 and 20.4107 and 36.1685
- pCFB (Lp(a) pct change from baseline) [2]: -20.0709 and -45.3913 and -34.0392 and -59.2235 and -35.3595 and -26.5656 and -35.8749 and -28.5937
- Lp(a) [3]: 38.5745 and 31.448 and 28.6503 and 10.7198 and 9.08 and 32.1393 and 18.0332
- pCFB (Lp(a) pct change from baseline) [3]: -38.7957 and -36.3639 and -50.6056 and -21.1294 and -46.9735 and -39.3758 and -35.1194 and -48.839
- Lp(a) [4]: 44.675 and 39.068 and 37.0712 and 13.4855 and 14.776 and 41.9348 and 17.9605
- pCFB (Lp(a) pct change from baseline) [4]: -29.1163 and -20.9446 and -36.0875 and -0.7811 and -13.7109 and -20.8987 and -35.3809 and -39.6451
- Lp(a) [5]: 55.7647 and 33.5363 and 40.4025 and 9.657 and 7.2775 and 34.1767 and 13.5137
- pCFB (Lp(a) pct change from baseline) [5]: -11.5208 and -32.1383 and -30.3443 and -28.9479 and -57.5008 and -35.5326 and -51.38 and -30.8982
- Lp(a) [6]: 48.1358 and 37.1353 and 55.4155 and 18.3242
- pCFB (Lp(a) pct change from baseline) [6]: 11.5412 and -39.7058 and -6.086 and -13.177 and -16.5026 and -22.2746 and -23.3982 and -15.0662
- Lp(a) [7]: 39.5063 and 29.6812 and 40.6228 and 20.1472
- pCFB (Lp(a) pct change from baseline) [7]: -18.2339 and -33.7073 and 11.9206 and -19.0783 and -28.1629 and -38.7431 and -37.1309 and -32.1149
- Lp(a) [8]: 37.3218 and 25.577 and 40.148 and 26.2523
- pCFB (Lp(a) pct change from baseline) [8]: -19.1894 and -13.6191 and -4.001 and -34.7759 and -8.718 and -58.5688 and -40.6072 and -41.5017
- Lp(a) [9]: 56.5955 and 31.4135 and 43.3325 and 24.1392
- pCFB (Lp(a) pct change from baseline) [9]: -12.7796 and -20.572 and 2.106 and -9.614 and -0.2146 and -48.0895 and -9.936 and -28.1528
- Lp(a) [10]: 39.3452 and 48.5785 and 37.4098 and 37.2848
- pCFB (Lp(a) pct change from baseline) [10]: -24.9526 and -29.9842 and 41.651 and -25.3919 and 24.0547 and -24.319 and -22.6937 and -14.4384
